We go through 27 molecules from US20230256102A1, “COMPOSITES AND USES THEREOF” (YISSUM RESEARCH DEVELOPMENT COMPANY OF THE HEBREW …, priority 2019, published 2023).

Square brackets hold non-standard residues; d marks the D form. Peptide text beside a SMILES is read from it. * marks the point of attachment. Palmitoyl = CCCCCCCCCCCCCCCC(=O)*

The first test deals with MRSA cells. Briefly: Mixing leucine-lysine random peptide mixtures and copper ions assay. The class given is cell-based, Staphylococcus aureus. The note with it: 400 ppm copper sulfate, 6 hours. Here is the method: Mixing Leucine-Lysine random peptide mixtures and copper ions assay: MRSA cells were grown as described in order to prepare a bacterial suspension with O.D.600 nm of 0.1. […] After mixing by vortex, a 1 mL sample was taken for O.D. measurement and the remaining 1 mL sample was incubated for 6 hours at 37° C., 100 RPM. After this time, the O.D. was re-measured and the percentage growth was calculated according to the equation: […]
In the case of `O=S(=O)([O-])[O-].[Cu+2]` [copper sulfate], the “growth of MRSA lower than the control” value was ~15%.

In another test the test system is Xanthomonas campestris pv. campestris (Xcc) ATCC 33913. Briefly: Minimal inhibitory concentration (MIC) assay. Type of test: cell-based. The note with it: 24 h, 28° C. The procedure:
Bacterial strains and growth conditions: The bacterial strains used in this study are detailed in Table 2. Unless stated otherwise, all strains were grown on nutrient agar (NA, Difco) or nutrient broth (NB, Difco), except Pst that was grown on Kings B agar plates and NB. All strains were grown at 28° C. for 48 h. All bacterial cells used in this study were stored in 25% glycerol at −80° C.
Minimal inhibitory concentration (MIC) assay: MIC values were determined by broth microdilution in sterile 96-flat bottom well plates (Corning 3650) as described by Hayouka et al. (2013). Briefly, Xcc cells were grown for 24 h in NB at 28° C., with shaking (180 rpm) and re-suspended in fresh NB to reach an OD600 nm of 0.1 (˜10^8 CFU/ml) that was measured using a Genesys 10 uv spectrophotometer (ThermoSpectronic). One hundred microliter-aliquots of Xcc cells were added to 100 μl of NB medium containing peptides/lipopeptides at various concentrations. Bacterial growth was determined after incubation of 24 h at 28° C. by measurement of the optical density (OD595 nm), using a Tecan infinite Pro Plate reader. […] The highest concentration tested was 200 μg/ml. Each experiment was carried out at least three times, with three replicates per strain/concentration combination in each experiment.
`CCCCCCCCCCCCCCCC(=O)N[C@@H](Cc1ccccc1)C(=O)N[C@@H](Cc1ccccc1)C(=O)N[C@H](CCCCN)C(=O)N[C@H](CCCCN)C(=O)N[C@H](CCCCN)C(N)=O` [lipopeptide #16, p-FFkkk] (Palmitoyl-FF[dK][dK][dK]-NH2): the MIC value amounted to 50 µg/mL.

`CCCCCCCCCCCCCCCC(=O)N[C@@H](Cc1ccccc1)C(=O)N[C@H](CCCCN)C(=O)N[C@H](CCCCN)C(=O)N[C@H](CCCCN)C(=O)N[C@H](CCCCN)C(N)=O` [lipopeptide #6, p-Fkkkk] (Palmitoyl-F[dK][dK][dK][dK]-NH2): the MIC value stood at 12 µg/mL.

`CCCCCCCCCCCCCCCC(=O)N[C@@H](Cc1ccccc1)C(=O)N[C@H](CCCCN)C(=O)N[C@H](CCCCN)C(=O)N[C@@H](Cc1ccccc1)C(=O)N[C@@H](Cc1ccccc1)C(N)=O` [lipopeptide #19, p-FkkFF] (Palmitoyl-F[dK][dK]FF-NH2): the MIC value turned out to be 38 µg/mL.

The test is the same for the next values; noted with them: 24 h, 28° C., ND = non-detected at tested concentrations (up to 200 μg/ml).
As for `CCCCCCCCCCCCCCCC(=O)N[C@@H](Cc1ccccc1)C(=O)N[C@H](CCCCN)C(=O)N[C@@H](Cc1ccccc1)C(=O)N[C@H](CCCCN)C(=O)N[C@H](CCCCN)C(N)=O` [lipopeptide #15, p-FkFkk] (Palmitoyl-F[dK]F[dK][dK]-NH2), the “Average MIC” value was determined as 10 µg/mL.

Turning to `CCCCCCCCCCCCCCCC(=O)N[C@H](CCCCN)C(=O)N[C@@H](Cc1ccccc1)C(=O)N[C@H](CCCCN)C(=O)N[C@H](CCCCN)C(=O)N[C@H](CCCCN)C(N)=O` [lipopeptide #5, p-kFkkk] (Palmitoyl-[dK]F[dK][dK][dK]-NH2), the “Average MIC” value is 6 µg/mL.

With `CCCCCCCCCCCCCCCC(=O)N[C@H](CCCCN)C(=O)N[C@H](CCCCN)C(=O)N[C@@H](Cc1ccccc1)C(=O)N[C@@H](Cc1ccccc1)C(=O)N[C@H](CCCCN)C(N)=O` [lipopeptide #11, p-kkFFk] (Palmitoyl-[dK][dK]FF[dK]-NH2), the “Average MIC” value was 6 µg/mL.

As to `CCCCCCCCCCCCCCCC(=O)N[C@H](CCCCN)C(=O)N[C@H](CCCCN)C(=O)N[C@H](CCCCN)C(=O)N[C@H](CCCCN)C(=O)N[C@H](CCCCN)C(N)=O` [lipopeptide #1, p-kkkkk] (Palmitoyl-[dK][dK][dK][dK][dK]-NH2), the “Average MIC” value was 6 µg/mL.

Turning to `CCCCCCCCCCCCCCCC(=O)N[C@H](CCCCN)C(=O)N[C@H](CCCCN)C(=O)N[C@@H](Cc1ccccc1)C(=O)N[C@H](CCCCN)C(=O)N[C@H](CCCCN)C(N)=O` [lipopeptide #4, p-kkFkk] (Palmitoyl-[dK][dK]F[dK][dK]-NH2), the “Average MIC” value turned out to be 6 µg/mL.

`CCCCCCCCCCCCCCCC(=O)N[C@@H](Cc1ccccc1)C(=O)N[C@H](CCCCN)C(=O)N[C@H](CCCCN)C(=O)N[C@H](CCCCN)C(=O)N[C@@H](Cc1ccccc1)C(N)=O` [lipopeptide #10, p-FkkkF] (Palmitoyl-F[dK][dK][dK]F-NH2): the “Average MIC” value was determined as 6 µg/mL.

`CCCCCCCCCCCCCCCC(=O)N[C@H](CCCCN)C(=O)N[C@@H](Cc1ccccc1)C(=O)N[C@@H](Cc1ccccc1)C(=O)N[C@@H](Cc1ccccc1)C(=O)N[C@H](CCCCN)C(N)=O` [lipopeptide #23, p-kFFFk] (Palmitoyl-[dK]FFF[dK]-NH2): the “Average MIC” value worked out at 100 µg/mL.

As to `CCCCCCCCCCCCCCCC(=O)N[C@H](CCCCN)C(=O)N[C@H](CCCCN)C(=O)N[C@H](CCCCN)C(=O)N[C@@H](Cc1ccccc1)C(=O)N[C@H](CCCCN)C(N)=O` [lipopeptide #3, p-kkkFk] (Palmitoyl-[dK][dK][dK]F[dK]-NH2), the “Average MIC” value came out at 4 µg/mL.

As for `CCCCCCCCCCCCCCCC(=O)N[C@H](CCCCN)C(=O)N[C@H](CCCCN)C(=O)N[C@@H](Cc1ccccc1)C(=O)N[C@@H](Cc1ccccc1)C(=O)N[C@@H](Cc1ccccc1)C(N)=O` [lipopeptide #17, p-kkFFF] (Palmitoyl-[dK][dK]FFF-NH2), the “Average MIC” value amounted to 50 µg/mL.

In the case of `CCCCCCCCCCCCCCCC(=O)N[C@H](CCCCN)C(=O)N[C@@H](Cc1ccccc1)C(=O)N[C@@H](Cc1ccccc1)C(=O)N[C@H](CCCCN)C(=O)N[C@@H](Cc1ccccc1)C(N)=O` [lipopeptide #20, p-kFFkF] (Palmitoyl-[dK]FF[dK]F-NH2), the “Average MIC” value stood at 100 µg/mL.

As to `CCCCCCCCCCCCCCCC(=O)N[C@@H](Cc1ccccc1)C(=O)N[C@H](CCCCN)C(=O)N[C@H](CCCCN)C(=O)N[C@@H](Cc1ccccc1)C(=O)N[C@H](CCCCN)C(N)=O` [lipopeptide #13, p-FkkFk] (Palmitoyl-F[dK][dK]F[dK]-NH2), the “Average MIC” value stood at 6 µg/mL.

Regarding `CCCCCCCCCCCCCCCC(=O)N[C@H](CCCCN)C(=O)N[C@@H](Cc1ccccc1)C(=O)N[C@@H](Cc1ccccc1)C(=O)N[C@H](CCCCN)C(=O)N[C@H](CCCCN)C(N)=O` [lipopeptide #14, p-kFFkk] (Palmitoyl-[dK]FF[dK][dK]-NH2), the “Average MIC” value stood at 8 µg/mL.

Turning to `CCCCCCCCCCCCCCCC(=O)N[C@H](CCCCN)C(=O)N[C@H](CCCCN)C(=O)N[C@@H](Cc1ccccc1)C(=O)N[C@H](CCCCN)C(=O)N[C@@H](Cc1ccccc1)C(N)=O` [lipopeptide #8, p-kkFkF] (Palmitoyl-[dK][dK]F[dK]F-NH2), the “Average MIC” value came to 6 µg/mL.

Take `CCCCCCCCCCCCCCCC(=O)N[C@H](CCCCN)C(=O)N[C@@H](Cc1ccccc1)C(=O)N[C@H](CCCCN)C(=O)N[C@@H](Cc1ccccc1)C(=O)N[C@H](CCCCN)C(N)=O` [lipopeptide #12, p-kFkFk] (Palmitoyl-[dK]F[dK]F[dK]-NH2): the “Average MIC” value worked out at 12 µg/mL.

Consider `CCCCCCCCCCCCCCCC(=O)N[C@@H](Cc1ccccc1)C(=O)N[C@H](CCCCN)C(=O)N[C@@H](Cc1ccccc1)C(=O)N[C@H](CCCCN)C(=O)N[C@@H](Cc1ccccc1)C(N)=O` [lipopeptide #21, p-FkFkF] (Palmitoyl-F[dK]F[dK]F-NH2), for which the “Average MIC” value turned out to be 38 µg/mL.

Consider `CCCCCCCCCCCCCCCC(=O)N[C@H](CCCCN)C(=O)N[C@H](CCCCN)C(=O)N[C@H](CCCCN)C(=O)N[C@H](CCCCN)C(=O)N[C@@H](Cc1ccccc1)C(N)=O` [lipopeptide #2, p-kkkkF] (Palmitoyl-[dK][dK][dK][dK]F-NH2), for which the “Average MIC” value was found to be 6 µg/mL.

For `CCCCCCCCCCCCCCCC(=O)N[C@H](CCCCN)C(=O)N[C@@H](Cc1ccccc1)C(=O)N[C@H](CCCCN)C(=O)N[C@@H](Cc1ccccc1)C(=O)N[C@@H](Cc1ccccc1)C(N)=O` [lipopeptide #18, p-kFkFF] (Palmitoyl-[dK]F[dK]FF-NH2), the “Average MIC” value worked out at 50 µg/mL.

As to `CCCCCCCCCCCCCCCC(=O)N[C@H](CCCCN)C(=O)N[C@H](CCCCN)C(=O)N[C@H](CCCCN)C(=O)N[C@@H](Cc1ccccc1)C(=O)N[C@@H](Cc1ccccc1)C(N)=O` [lipopeptide #7, p-kkkFF] (Palmitoyl-[dK][dK][dK]FF-NH2), the “Average MIC” value is 14 µg/mL.

As to `CCCCCCCCCCCCCCCC(=O)N[C@H](CCCCN)C(=O)N[C@@H](Cc1ccccc1)C(=O)N[C@H](CCCCN)C(=O)N[C@H](CCCCN)C(=O)N[C@@H](Cc1ccccc1)C(N)=O` [lipopeptide #9, p-kFkkF] (Palmitoyl-[dK]F[dK][dK]F-NH2), the “Average MIC” value was determined as 5 µg/mL.

Still in this test, the particulars now being: highest concentration tested 200 μg/ml.
On to p-FFkkF [lipopeptide #22], for which the “inhibitory activity in MIC assay (in words)” value (shortened to “inhibitory activity”) is listed as “no inhibitory activity”.

For the molecule p-FFkFk [lipopeptide #25], the “inhibitory activity” value was “no inhibitory activity”.

Regarding p-FkFFk [lipopeptide #24], the “inhibitory activity” value is on record as “no inhibitory activity”.

For the molecule p-FFFkk [lipopeptide #26], the “inhibitory activity” value is listed as “not active”.
